Reference: patent US9315496B2, “Benzopyrone derivative and use thereof” (HUAZHONG UNIVERSITY OF SCIENCE & TECHNOLOGY, priority 2011, dated 2016)
Like-named read-outs stand apart in the source and are kept apart here.

Columns and labels:
KM mice [1] = test: Catalepsy assay; assay type: in vivo
Protocol: (§1) Healthy mice of Kunming breed (with half male and half female, (22±2)g) were provided by Qinglongshan Animal Cultivation Center, Nanjing.
(§2) Instruments: self-made bar-grabbing apparatus: stainless steel bar in mice box, which was 0.3 cm in diameter and […].
(§3) Corresponding solvent double-distilled water was administered intragastrically to the negative control group and the model group, corresponding positive drugs were administered intragastrically to the positive drug groups (a small amount of acetic acid was first added and then double-distilled water was added when dissolving), and corresponding dosages of compounds were administered intragastrically to the compound groups for each dosage, with the volume for intragastric administration as 0.1 ml/10 g. At 30 min, 60 min, 90 min after the intragastric administration, the two forepaws of the mice were gently placed on the bars (which were 20 cm in length, 0.3 cm in diameter, and 5.5 cm above the bench), and the hindpaws of the animals were placed on the bottom of the box. The durations for the mice to maintain the posture with the two forepaws on the bars were recorded, and 30 s of spasticity without moving was considered as the positive response. In the case the forepaws of the mice were not put down persistently, the observation was terminated at 60 s. The numbers of animals with positive response in each of the compound dosage groups were counted.

Catalepsy assay = assay type: in vivo; settings: both sexes, Kunming (KM), mouse, in vivo; mice, po
Protocol: as §1, §2, §3

KM mice [2] = test: Apomorphine induced clambering assay of mice; assay type: in vivo; settings: for ED50: Mus musculus, po, apomorphine 1 mg/kg sc
Protocol: Healthy KM mice (male, with body weight of 18-22 g) were provided by Qinglongshan Animal Cultivation Center, Nanjing.
Test positive drugs: haloperidol, clozapine, risperidone, olanzapine, aripiprazole, ziprasidone, quetiapine.
Apomorphine provided by Sigma Company was dissolved in 0.9% NaCl (containing 0.1% vitamin C) before use, and was freshly formulated before use.
Corresponding solvent double-distilled water was administered intragastrically to the negative control group and the model group, corresponding positive drugs were administered intragastrically to the positive drug groups (a small amount of acetic acid was first added and then double-distilled water was added when dissolving), and corresponding dosages of compounds were administered intragastrically to the compound groups for each dosage, with the volume for intragastric administration as 0.1 ml/10 g. 1 hour after the intragastric administration, apomorphine was subcutaneously injected (1 mg/kg), with the volume as 0.1 ml/10 g. After the injection of apomorphine, the mice were immediately put into the clambering cages. After 5 min of adaptation, the behaviors of the mice at 10-11, 20-21, and 30-31 min after the injection of apomorphine were observed and scored. Scoring criteria: 4 paws on the floor was scored as 0; 2 forepaws on the cage was scored as 1; and 4 paws on the cage was scored as 2.

5-HT1A receptor = target: T1, 5-HT1A receptor (Rattus norvegicus, UniProt P19327); test: 5HT1A receptor binding assay (3H-8-OH-DPAT, rat brain striatum membrane); settings: for inhibition at 10 µM: test compound final concentration 10^−5 M
T1 sequence (P19327 1-422): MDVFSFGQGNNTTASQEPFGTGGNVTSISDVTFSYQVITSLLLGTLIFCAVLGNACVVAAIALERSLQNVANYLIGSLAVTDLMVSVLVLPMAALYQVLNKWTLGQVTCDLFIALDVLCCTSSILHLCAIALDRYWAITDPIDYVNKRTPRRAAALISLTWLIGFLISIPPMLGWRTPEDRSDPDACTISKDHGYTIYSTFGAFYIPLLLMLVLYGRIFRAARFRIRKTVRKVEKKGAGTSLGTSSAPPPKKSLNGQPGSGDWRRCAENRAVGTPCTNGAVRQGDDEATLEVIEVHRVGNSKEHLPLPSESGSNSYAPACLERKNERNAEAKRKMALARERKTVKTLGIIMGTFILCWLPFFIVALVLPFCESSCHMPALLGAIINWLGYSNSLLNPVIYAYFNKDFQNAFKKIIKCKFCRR
Protocol: Incubation at 37° C. was conducted for 10 min, the weight of the tubes were adjusted using a balance after incubation. […] Centrifugation was conducted and repeated 3 times.

5-HT2A receptor = 5-HT2A receptor (Rattus norvegicus, UniProt P14842); test: 5HT2A receptor binding assay ([3H]-Ketanserin, rat brain striatum membrane); settings: for inhibition at 10 µM: read-out: 5HT2A inhibition %
Sequence of 5-HT2A receptor (P14842 whole entry): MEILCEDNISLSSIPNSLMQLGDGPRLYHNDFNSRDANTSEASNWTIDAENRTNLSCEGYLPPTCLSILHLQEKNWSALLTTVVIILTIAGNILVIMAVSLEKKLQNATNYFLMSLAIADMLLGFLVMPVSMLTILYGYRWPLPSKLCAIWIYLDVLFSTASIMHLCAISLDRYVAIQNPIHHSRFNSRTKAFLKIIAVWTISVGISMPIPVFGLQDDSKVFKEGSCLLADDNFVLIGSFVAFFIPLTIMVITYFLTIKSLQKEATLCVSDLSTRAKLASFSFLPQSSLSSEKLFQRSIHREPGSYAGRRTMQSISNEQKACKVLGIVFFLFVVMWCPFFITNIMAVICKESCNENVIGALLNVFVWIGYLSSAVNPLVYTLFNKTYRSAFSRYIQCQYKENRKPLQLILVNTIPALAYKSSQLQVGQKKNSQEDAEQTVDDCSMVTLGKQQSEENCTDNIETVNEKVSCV

in vivo = settings: both, mouse, po
Protocol: (§4) KM mice (half male and half female) were randomly divided into several groups (with 2-5 mice in each group), which were respectively the 2000 mg/kg groups for each compound, and the solvent group. 0.2 ml/10 g were administered intragastrically. The death of the animals in 3 days were observed. (In the case 3 or more animals survived in 3 days without notable abnormity in their life states, the observation was continued until the assay was completed in 7 days. In the case 3 or more animals died in 3 days, the median lethal dose method was used to determine the LD50).
(§5) 0.2 ml/10 g were administered intragastrically, and the death of the animals in 1-3 days were observed.

dopamine D2 receptor = dopamine D2 receptor (Rattus norvegicus, UniProt P61169); test: D2 receptor binding assay (3H-Spiperone, rat brain striatum membrane); settings: for inhibition at 10 µM: read-out: D2 inhibition %
Sequence of dopamine D2 receptor (P61169 whole entry): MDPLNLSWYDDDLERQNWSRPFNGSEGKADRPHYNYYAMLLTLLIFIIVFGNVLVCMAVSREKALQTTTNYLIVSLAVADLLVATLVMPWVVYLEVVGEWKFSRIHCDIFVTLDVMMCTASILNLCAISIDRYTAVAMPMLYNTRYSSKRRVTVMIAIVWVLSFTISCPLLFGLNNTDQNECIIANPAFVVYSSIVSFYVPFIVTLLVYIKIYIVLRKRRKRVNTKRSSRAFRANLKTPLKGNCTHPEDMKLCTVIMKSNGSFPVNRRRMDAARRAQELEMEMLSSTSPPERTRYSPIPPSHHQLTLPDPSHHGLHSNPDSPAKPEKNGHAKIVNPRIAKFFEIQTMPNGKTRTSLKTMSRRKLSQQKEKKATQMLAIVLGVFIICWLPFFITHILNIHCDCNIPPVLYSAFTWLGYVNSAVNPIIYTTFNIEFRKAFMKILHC
Protocol: Rats were sacrificed by cervical dislocation on ice. Brain striatum was rapidly taken, and 2 brain striatums were combined into a centrifuge tube, to which 3 ml of buffer (0.05 M Tris-HCl buffer, containing NaCl 120 mM, KCl 5 mM, MgCl2 1 mM, CaCl2 1 mM) was added, homogenization was conducted for 3-4 s at level 4 for four times, and then 5 ml of buffer was then added. The weight of the homogenized tubes were adjusted using a balance, and centrifugation was conducted at 12000 r, 4° C. for 20 min. The supernatant was discarded, and 3 ml of buffer was added (0.05 M Tris-HCl buffer, containing NaCl 120 mM, KCl 5 mM, MgCl2 1 mM, CaCl2 1 mM). Vortex mixer was used for blending, and then 5 ml of buffer was added (0.05 M Tris-HCl buffer, containing NaCl 120 mM, KCl 5 mM, MgCl2 1 mM, CaCl2 1 mM). Centrifugation was conducted (repeated 3 times). After the centrifugations, the supernatant was discarded, and the pellets were stored at −80° C. for future use.
Beckman LS-6500 Multi-function Liquid Scintillation Counter was used.
(1) The prepared membrane was first applied with appropriate amount of homogenized liquid, and homogenizer was used for evenly dispersing. 15 tubes were mixed into a 100 ml container, and appropriate amount of homogenized liquid was added to give 50 ml of membrane suspension, which was reserved for future use.
(2) 100 μL of membrane preparation and 100 μL of buffer were added into each reaction tube.
(3) 100 μL of homogenized liquid was added into the total binding tube (TB), 100 μL of Butaclamol (final concentration 10^−5 M) was added into the non-specific binding tube (NB), and 100 μL of the test compound (final concentration 10^−5 M) was added into the specific binding tube (SB) for each compound.
(5) Each of the reaction tubes was incubated at 37° C. for 20 min. After the reaction was completed, the bound ligands were rapidly filtered under reduced pressure, and the ice-chilled assay buffer was used for adequate washing. The filter was taken out and put into a 3 ml scintillation vial, and 2 ml of toluene scintillation solution was added and blended.
(6) The scintillation vials were put into Liquid Scintillation Counter for counting. Inhibitory rate(1%)=(Total binding tube cpm−compound cpm)/(Total binding tube cpm−non-specific binding tube cpm)×100%
Each assay for the compounds was conducted in duplicate.

mice of Kunming breed = test: MK-801 induced high activity in mice; assay type: in vivo; settings: for ED50: Mus musculus, 1.5 h, po, MK-801 0.1 mg/kg ip, spontaneous activity in 90 min; for improvement of MK-801 induced high activity (in words): compared to the model group
Protocol: Healthy mice of Kunming breed (with half male and half female, (20±2)g) were provided by Qinglongshan Animal Cultivation Center, Nanjing.
Subsequently, the spontaneous activities of the mice of each group in 90 min were measured.

KM mice [3] = settings: both, mouse, in vivo
Protocol: as §4, §5

5-HT2C receptor = 5-HT2C receptor (Rattus norvegicus, UniProt P08909); test: 5HT2C receptor binding assay ([3H]-mesulergine, rat brain striatum membrane)
Sequence of 5-HT2C receptor (P08909 33-460): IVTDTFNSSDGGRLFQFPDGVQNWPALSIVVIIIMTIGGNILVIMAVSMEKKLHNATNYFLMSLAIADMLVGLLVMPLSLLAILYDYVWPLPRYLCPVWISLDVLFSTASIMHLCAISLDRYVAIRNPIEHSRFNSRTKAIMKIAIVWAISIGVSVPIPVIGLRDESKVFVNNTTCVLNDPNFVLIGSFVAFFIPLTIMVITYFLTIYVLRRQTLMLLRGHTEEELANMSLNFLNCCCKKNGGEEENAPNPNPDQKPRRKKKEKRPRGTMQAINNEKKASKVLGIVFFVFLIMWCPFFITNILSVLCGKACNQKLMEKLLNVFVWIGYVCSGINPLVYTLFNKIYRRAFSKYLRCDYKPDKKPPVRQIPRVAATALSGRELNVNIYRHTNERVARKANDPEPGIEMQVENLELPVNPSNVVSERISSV

D3 receptor = target: T2, D3 receptor (Homo sapiens, UniProt P35462); test: D3 receptor assay ([3H]-Spiperone, HEK-293 cells); assay type: binding
T2 construct: expressed in transfected cells; host or cells: HEK-293
T2 sequence (P35462 whole entry): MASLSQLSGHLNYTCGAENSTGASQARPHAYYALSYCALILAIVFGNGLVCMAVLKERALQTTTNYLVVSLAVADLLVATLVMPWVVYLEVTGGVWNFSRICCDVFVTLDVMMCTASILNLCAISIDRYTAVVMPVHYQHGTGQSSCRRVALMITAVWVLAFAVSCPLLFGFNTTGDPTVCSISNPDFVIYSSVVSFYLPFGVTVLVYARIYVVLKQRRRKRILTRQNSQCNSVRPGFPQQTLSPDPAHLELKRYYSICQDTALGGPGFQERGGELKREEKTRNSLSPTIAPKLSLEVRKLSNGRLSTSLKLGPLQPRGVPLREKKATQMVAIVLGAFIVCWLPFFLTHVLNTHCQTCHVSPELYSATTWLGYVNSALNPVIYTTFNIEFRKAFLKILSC
Protocol: After the cells were centrifuged at 1000 rpm for 5 min, the supernatant was discarded, and the cell pellet was collected and stored in a −20° C. fridge for reservation. It was re-suspended with Tris-Cl (pH 7.4) in the assay.
Tris was divided into aliquots by Genetimes Technology Inc.
Competitive binding test for receptors: 20 μl of each of the test compounds and 20 μl of the radioactive ligand together with 160 μl of the receptor proteins were added into the reaction tubes, and the final concentrations of the test compound and the positive drug were all 10 μmol/L. After 50 min of incubation in 30° C. water bath, the tubes were immediately moved to ice bath to terminate the reactions. GF/C glass fiber filter papers were used for rapid sucking filtration on a Millipore cell sample collector, elution buffer (50 mM Tris-HCl, PH 7.4) was applied for 3 ml×3 times, and microwave was applied for 4-5 min for drying. The filter papers were moved into 0.5 ml centrifuge tubes, and 500 μl of lipid-soluble scintillation solution was added. The tubes were allowed to stand still for over 30 min in dark, and the intensities of radioactivity were measured by a counter.

[4] = 3H-8-OH-DPAT, rat brain striatum membrane
[5] = in vitro receptor binding assay

SMILES: Cc1cc(=O)oc2c(Cl)c(OCCCCN3CCC(c4noc5cc(F)ccc45)CC3)ccc12 [Compound 19, 7-(4-(4-(3-(6-fluoro-benzisoxazole)-1-piperidyl)-n-butoxy))-4-methyl-8-chloro-2H-benzopyran-2-one]
- EPS at effective dosage (in words) (KM mice [1]): did not cause EPS
- ED50 (Catalepsy assay): 70.8 mg/kg
- improvement of apomorphine induced clambering symptoms (in words) (KM mice [2]): effectively improve
- ED50 (KM mice [2]): 1.68 mg/kg
- inhibition at 10 µM (5-HT1A receptor; [4]): 104%
- inhibition at 10 µM (5-HT2A receptor; test compound final concentration 10^−5 M, [3H]-Ketanserin, rat brain striatum membrane): 119%
- LD50 (in vivo; KM): > 2000 mg/kg
- inhibition at 10 µM (dopamine D2 receptor): 27.8%
- ED50 (mice of Kunming breed): 1.33 mg/kg
- improvement of MK-801 induced high activity (in words) (mice of Kunming breed): significantly improve

SMILES: O=C1CCc2ccc(OCCCCN3CCN(c4cccc(Cl)c4Cl)CC3)cc2N1 [aripiprazole]
- LD50 (po, mg/kg) (KM mice [3]): 93 mg/kg

SMILES: Cc1cc(=O)oc2cc(OCCCN3CCC(c4noc5cc(F)ccc45)CC3)ccc12 [Compound 7, 7-(3-(4-(3-(6-fluoro-benzisoxazole)-1-piperidyl)-n-propoxy))-4-methyl-2H-benzopyran-2-one]
- ED50 (Catalepsy assay): 1.5 mg/kg
- ED50 (KM mice [2]): 0.15 mg/kg
- IC50 (5-HT1A receptor; cells marked ^a, 3H-8-OH-DPAT, rat brain striatum membrane): 5.95 nM
- affinity for 5-HT1A receptor (in words) (5-HT1A receptor; [5]): relatively stronger affinities
- IC50 (5-HT2A receptor; cells marked ^a, [3H]-Ketanserin, rat brain striatum membrane): 0.69 nM
- affinity for 5-HT2A receptor (in words) (5-HT2A receptor; [5]): relatively stronger affinities
- LD50 (in vivo): 1000 to 2000 mg/kg
- affinity for D2 receptor (in words) (dopamine D2 receptor; [5]): relatively stronger affinities
- inhibition at 10 µM (dopamine D2 receptor): 103%
- ED50 (mice of Kunming breed): 0.27 mg/kg
- affinity for 5-HT2C receptor (in words) (5-HT2C receptor; [5]): lower affinities
- inhibition at 10 µM (5-HT2C receptor; read-out: 5HT2C inhibition %): 82%
- inhibition at 10 µM (D3 receptor; final concentration 10 μmol/L, [3H]-Spiperone, HEK-293 cells): 101%
- affinity for D3 receptor (in words) (D3 receptor; [5]): relatively stronger affinities

SMILES: Cc1cc(=O)oc2c(C)c(OCCCCN3CCC(c4noc5cc(F)ccc45)CC3)ccc12 [Compound 23, 7-(4-(4-(3-(6-fluoro-benzisoxazole)-1-piperidyl)-n-butoxy))-4,8-dimethyl-2H-benzopyran-2-one]
- EPS at effective dosage (in words) (KM mice [1]): did not cause EPS
- ED50 (Catalepsy assay): 46.1 mg/kg
- improvement of apomorphine induced clambering symptoms (in words) (KM mice [2]): effectively improve
- ED50 (KM mice [2]): 0.21 mg/kg
- inhibition at 10 µM (5-HT1A receptor; [4]): 78.5%
- inhibition at 10 µM (5-HT2A receptor): 78.6%
- LD50 (in vivo): > 2000 mg/kg
- inhibition at 10 µM (dopamine D2 receptor): 6.9%
- ED50 (mice of Kunming breed): 4.24 mg/kg
- improvement of MK-801 induced high activity (in words) (mice of Kunming breed): significantly improve
